Measured values taken from patent US11472812B2, “Anti-cancer compounds targeting Ral GTPases and methods of using the same” (The Regents of the University of Colorado, a body corporate, priority 2014, dated 2022).

Assays:
[1] = target: T1, RalB-GDP (Homo sapiens, UniProt P11234, Q72L); assay: Surface Plasma Resonance (SPR) binding, Biacore 3000; conditions: RalB immobilized on CM5 chip; PBS pH 7.4, 1 μM GDP, 2 mM MgCl2, 3% DMSO
T1 construct: made in house
T1 sequence (P11234 1-206 Q72L): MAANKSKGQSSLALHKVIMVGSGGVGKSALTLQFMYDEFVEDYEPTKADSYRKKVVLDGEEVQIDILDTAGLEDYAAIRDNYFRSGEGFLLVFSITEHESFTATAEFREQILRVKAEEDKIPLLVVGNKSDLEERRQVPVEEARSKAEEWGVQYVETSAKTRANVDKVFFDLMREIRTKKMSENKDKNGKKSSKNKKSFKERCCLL
Procedure: (§1) Consequently, the binding of BQU57 to RalB-GDP was then determined using Isothermal Titration Calorimetry (ITC). ITC experiments were carried out using the MicroCal iTC200 system. Both protein and drug were prepared in 50 mM sodium phosphate, pH 7.6, 100 mM NaCl, and 1 mM MgCl2. Final DMSO concentration was adjusted to 1%. RalB-GDP protein (500 μM) were loaded into the syringe and titrated into drug (25 μM) or buffer alone as control. All experiments were carried out at 25° C. […] SPR experiments were carried out using the Biacore 3000 system. Running buffer: PBS, pH 7.4, 1 μM GDP, 2 mM MgCl2, 3% DMSO. Regeneration buffer: PBS, pH 7.4, 1 μM GDP, 2 mM Mg Cl2. RalB protein was immobilized on CM5 chip; samples of compound BQU57 in running buffer were injected at 30 μL/min for 60 s contact time followed by 5 minute regeneration.

[2] = target: T1, RalB-GDP; assay: Isothermal Titration Calorimetry (ITC); format: binding; conditions: 25° C.; 50 mM sodium phosphate pH 7.6; 1% DMSO
Procedure: as §1

[3] = target: T1, RalB-GDP; assay: Differential scanning fluorometry (DSF); format: binding; conditions: 10 μM RalB-GDP, 1% DMSO
Procedure: Differential scanning fluorometry (DSF) was used to evaluate binding between compounds and RalB-GDP. The melting temperature was measured by monitoring the increase of SYPRO orange that binds to hydrophobic regions of the protein. DSF was performed by preparing a plate containing 10 μM RalB-GDP and 10 μM RalB-GPNPP, 4×SYPRO orange in 20 mM Tris PH 8.0, 200 mM NaCl, 2.5 mM MgCl2 and 1 mM DTT buffer. Test compound was added to each well ensuring that the final concentration of DMSO was 1% across all samples. The thermal melting curves were obtained on a Light cycler 480 (Roche). The melting temperature was obtained by normalizing the curves and obtaining the temperature at the midpoint of the transition curve.

[4] = tested on: Ras; assay: Ras activity pull-down in H2122 xenograft tumors; format: in vivo, human; conditions: BQU57 treated H2122 tumors, 3 h post-dose
Source text: Activity assay kits for Ras (#BK008) and RhoA (#BK036) were obtained from Cytoskeleton (Denver, Colo.). We used an ELISA for Ral activity based on selective binding of active RalA-GTP to its effector protein RalBP1.
Finally, we evaluated Ral GTPase activity in vivo in the H2122 xenografts. Nude mice were inoculated with 5×10^6 cells H2122 cells s.c. at four sites per mice. Tumor size reached an average of 250 mm^3 in ten days, at which time mice were given a signal i.p. dose of RBC8 or BQU57 at various concentrations. Tumors were then collected 3 h after injection of RBC8 or BQU57. RalA and RalB activity in tumor samples were then measured using the RalBP1 pull-down assay kit (Millipore #14-415). Ras and RhoA activity in tumor samples were measured using the respective pull-down assay kits. All the activity assays used western blotting as the final readout. For quantification of the immunoblots, the bands on each blot were first normalized to their respective internal control (10 ng of recombinant Ral, Ras, or […] protein run in the last lane) the numbers were then compared across different blots, each of which represented one treatment condition. Mice bearing H2122 tumors (median size 250 mm^3) were given a single intraperitoneal dose of RBC8 (50 mg/kg) or BQU57 (10/20/50 mg/kg) and tumors collected 3 h post-dose.

Question: Which Kd [1] does the source give for `Cc1nn(C)c2c1C(c1ccc(C(F)(F)F)cc1)C(C#N)=C(N)O2` (stereo not shown) [BQU57, 6-amino-1,3-dimethyl-4-(4-(trifluoromethyl)phenyl)-1,4-dihydropyrano[2,3-c]pyrazole-5-carbonitrile] here?
Answer: Its Kd is 4.7 ± 1.5 µM.

Question: And the Kd [2]?
Answer: Its Kd is 7.7 ± 0.6 µM.

Question: And the “binding to RalB-GDP by DSF (melting temperature)” value [3]?
Answer: Its value is “dose-dependent binding”.

Question: And the “inhibition of Ras activity in tumors” value [4]?
Answer: The value was “no significant inhibition”.
